Measurements: patent publication US7217722B2 (Kirin Beer Kabushiki Kaisha, priority 2000, dated 2007)

Molecular target: Rho kinase (fused protein of bovine Rho kinase catalyst region and glutathione S-transferase) (Bos taurus, UniProt Q28021)
Experiment: Rho kinase inhibitory activity (phosphorylation of S6 231–239 substrate, γ32P-ATP)
Format: biochemical
Settings: concentration inhibiting substrate phosphorylation by 50%
Method: This permits the substrate to be labeled with the radioisotope.
Thereafter, the substrate was adsorbed to a filter paper. ATP was washed away with a phosphoric acid solution, and the amount of the phosphorylated substrate was then measured with a liquid scintillation counter.

Chain of Rho kinase (fused protein of bovine Rho kinase catalyst region and glutathione S-transferase) (Q28021 92-354 limits assumed): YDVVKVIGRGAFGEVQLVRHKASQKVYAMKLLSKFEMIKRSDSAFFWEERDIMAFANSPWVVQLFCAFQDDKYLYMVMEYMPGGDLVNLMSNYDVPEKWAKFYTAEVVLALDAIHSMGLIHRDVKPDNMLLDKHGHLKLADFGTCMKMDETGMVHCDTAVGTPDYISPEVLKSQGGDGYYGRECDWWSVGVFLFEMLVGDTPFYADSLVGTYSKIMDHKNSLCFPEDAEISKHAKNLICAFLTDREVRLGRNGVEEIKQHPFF

Compound	IC50
O=C(NCc1c(Cl)cccc1Cl)Nc1ccc2[nH]ncc2c1 [Example 106, N-(2,6-Dichlorobenzyl)-N′-(1H-5-indazolyl)urea]	1400 nM
COc1ccc(CN2CCC(Nc3ccc4[nH]ncc4c3)CC2)cc1 [Example 138, N-(1H-5-Indazolyl)-N-[1-(4-methoxybenzyl)-4-piperidyl]amine]	355 nM
O=C(NCc1ccccc1[N+](=O)[O-])Nc1ccncc1 [Example 93, N-(2-Nitrobenzyl)-N′-(4-pyridyl)urea]	12500 nM
O=C(COc1c(Cl)cc(F)cc1Cl)Nc1ccncc1 [Example 24, N1-(4-Pyridyl)-2-(2,6-dichloro-4-fluorophenoxy)acetamide]	480 nM
Clc1ccccc1CN1CCC(Nc2ccc3[nH]ncc3c2)C1 (stereo not drawn) [Example 151, N-[1-(2-Chlorobenzyl)tetrahydro-1H-3-pyrrolyl]-N-(1H-5-indazolyl)amine]	45 nM
c1ccc(CNC2CCC(Nc3ccc4[nH]ncc4c3)CC2)cc1 (mixture of isomers) [Example 171, N1-Benzyl-N4-(1H-5-indazolyl)-1,4-cyclohexanediamine]	90 nM
Cc1cc(Cl)c(OCC(=O)Nc2ccncc2)c(Cl)c1 [Example 30, N1-(4-Pyridyl)-2-(2,6-dichloro-4-methylphenoxy)acetamide]	1150 nM
Cc1ccc(CN2CCC(Nc3ccc4[nH]ncc4c3)CC2)cc1[N+](=O)[O-] [Example 124]	238 nM
O=C(NCc1ccc(Cl)cc1Cl)Nc1ccc2[nH]ncc2c1 [Example 100, N-(2,4-Dichlorobenzyl)-N′-(1H-5-indazolyl)urea]	220 nM
O=C(NCc1ccccc1Cl)Nc1ccncc1 [Example 94, N-(2-Chlorobenzyl)-N′-(4-pyridyl)urea]	7200 nM
O=C(NCc1ccccc1)Nc1ccc2[nH]ncc2c1 [Example 84, N-Benzyl-N′-(1H-5-indazolyl)urea]	260 nM
O=C(Nc1ccc2[nH]ncc2c1)Nc1c(Cl)cccc1Cl [Example 13, N-(2,6-Dichlorophenyl)-N′-(1H-5-indazolyl)urea]	980 nM
CC(=O)n1ncc2cc(NC3CCN(Cc4ccccc4)CC3)ccc21 [Example 176, 1-{5-[(1-Benzyl-4-piperidyl)amino]-1H-5-indazolyl}-1-ethanone]	4 nM
O=C(NCc1c(Cl)cccc1Cl)Nc1cc2c(cc1Cl)C(=O)NC2=O [Example 81, N-(6-Chloro-1,3-dioxo-2,3-dihydro-1H-5-isoindolyl)-N′-(2,6-dichlorobenzyl)urea]	54 nM
O=C(NCc1c(Cl)ccc(Cl)c1Cl)Nc1ccncc1 [Example 55, N′-(4-Pyridyl)-N-(2,3,6-trichlorobenzyl)urea]	1040 nM
COc1ccc(/C=C/C(=O)Nc2ccc3[nH]ncc3c2)cc1O [Example 41, N1-(1H-5-Indazolyl)-(E)-3-(3-hydroxy-4-methoxyphenyl)-2-propeneamide]	224 nM
COc1cc(CNC(=O)Nc2ccc3[nH]ncc3c2)ccc1O [Example 113, N-(4-Hydroxy-3-methoxybenzyl)-N′-(1H-5-indazolyl)urea]	492 nM
Cc1ccc(CN2CCC(Nc3ccc4[nH]ncc4c3)CC2)cc1C [Example 115, N-[1-(3,4-Dimethylbenzyl)-4-piperidyl]-N-(1H-5-indazolyl)amine]	372 nM
O=C(COc1c(Cl)cccc1Cl)Nc1ccncc1 [Example 3, N1-(4-Pyridyl)-2-(2,6-dichlorophenoxy)acetamide]	910 nM
O=C(NCc1c(Cl)ccc(Cl)c1Cl)Nc1ccc2c(c1)C(=O)NC2=O [Example 89, N-(1,3-Dioxo-2,3-dihydro-1H-5-isoindolyl)-N′-(2,3,6-trichlorobenzyl)urea]	300 nM
O=C(NCc1c(F)c(F)c(F)c(F)c1F)Nc1ccc2c(c1)C(=O)NC2=O [Example 98, N-(1,3-Dioxo-2,3-dihydro-1H-5-isoindolyl)-N′-(2,3,4,5,6-pentafluorobenzyl)urea]	410 nM
O=C(CNc1ccc(O)cc1)Nc1ccc2[nH]ncc2c1 [Example 50, N1-(1H-5-Indazolyl)-2-(4-hydroxyanilino)acetamide]	326 nM
COc1cc(CN2CCC(Nc3ccc4[nH]ncc4c3)C2)cc(OC)c1 (stereo not drawn) [Example 160, N-[1-(3,5-Dimethoxybenzyl)tetrahydro-1H-3-pyrrolyl]-N-(1H-5-indazolyl)amine]	1 nM
COc1ccc(/C=C/C(=O)Nc2ccc3[nH]ncc3c2)cc1OC [Example 42, N1-(1H-5-Indazolyl)-(E)-3-(3,4-dimethoxyphenyl)-2-propeneamide]	605 nM
Fc1ccc(CN2CCC(Nc3ccc4[nH]ncc4c3)C2)cc1 (stereo not drawn) [Example 154, N-[1-(4-Fluorobenzyl)tetrahydro-1H-3-pyrrolyl]-N-(1H-5-indazolyl)amine]	84 nM
O=C(CC1CCCCC1)Nc1ccncc1 [Example 31, N1-(4-Pyridyl)-2-cyclohexylacetamide]	5290 nM
O=C(NCc1ccc(Cl)cc1Cl)Nc1ccncc1 [Example 53, N-(2,4-Dichlorobenzyl)-N′-(4-pyridyl)urea]	4140 nM

Compound	IC50
O=C(NCc1cccc([N+](=O)[O-])c1)Nc1ccncc1 [Example 111, N-(3-Nitrobenzyl)-N′-(4-pyridyl)urea]	1770 nM
O=[N+]([O-])c1ccc(CN2CCCC(Nc3ccc4[nH]ncc4c3)C2)cc1 (stereo not drawn) [Example 169, N-(1H-5-Indazolyl)-N-[1-(4-nitrobenzyl)-3-piperidyl]amine]	87 nM
Fc1cccc(CN2CCC(Nc3ccc4[nH]ncc4c3)CC2)c1 [Example 117, N-[1-(3-Fluorobenzyl)-4-piperidyl]-N-(1H-5-indazolyl)amine]	317 nM
COc1cccc(CN2CCC(Nc3ccc4[nH]ncc4c3)CC2)c1 [Example 119, N-(1H-5-Indazolyl)-N-[1-(3-methoxybenzyl)-4-piperidyl]amine]	383 nM
O=C(NCc1ccccc1Cl)Nc1ccc2[nH]ncc2c1 [Example 104, N-(2-Chlorobenzyl)-N′-(1H-5-indazolyl)urea]	240 nM
O=C(NCc1c(F)ccc(F)c1F)Nc1ccc2[nH]ncc2c1 [Example 110, N-(1H-5-Indazolyl)-N′-(2,3,6-trifluorobenzyl)urea]	195 nM
O=C(COc1c(F)cc(F)cc1F)Nc1ccncc1 [Example 28, N1-(4-Pyridyl)-2-(2,4,6-trifluorophenoxy)acetamide]	8110 nM
Nc1cccc(NC(=O)Nc2ccc3c(c2)C(=O)NC3=O)c1 [Example 79]	8570 nM
O=C(Nc1ccc2c(c1)C(=O)NC2=O)Nc1c(Cl)cccc1Cl [Example 67, N-(2,6-Dichlorophenyl)-N′-(1,3-dioxo-2,3-dihydro-1H-isoindolyl)urea]	1920 nM
CCC(=O)c1cc(F)c(OCC(=O)Nc2ccncc2)c(F)c1 [Example 29, N1-(4-Pyridyl)-2-(2,6-difluoro-4-propionyl-phenoxy)acetamiden]	8590 nM
O=C(NCC1CCCCC1)Nc1ccncc1 [Example 75, N-Cyclohexylmethyl-N′-(4-pyridyl)urea]	6030 nM
Clc1cccc(CN2CCCC(Nc3ccc4[nH]ncc4c3)C2)c1 (stereo not drawn) [Example 162, N-[1-(3-Chlorobenzyl)-3-piperidyl]-N-(1H-5-indazolyl)amine]	19 nM
O=C(COc1c(Cl)cc(F)cc1Cl)Nc1ccc2[nH]ncc2c1 [Example 15, N1-(1H-5-Indazolyl)-2-(2,6-dichloro-4-fluorophenoxy)acetamide]	460 nM
COc1cc(/C=C/C(=O)Nc2ccc3[nH]ncc3c2)ccc1O [Example 40, N1-(1H-5-Indazolyl)-(E)-3-(4-hydroxy-3-methoxyphenyl)-2-propeneamide]	231 nM
Brc1ccc(CN2CCC(Nc3ccc4[nH]ncc4c3)C2)cc1 (stereo not drawn) [Example 155, N-[1-(4-Bromobenzyl)tetrahydro-1H-3-pyrrolyl]-N-(1H-5-indazolyl)amine]	24 nM
O=C(CSc1c(Cl)cccc1Cl)Nc1ccncc1 [Example 17, N1-(4-Pyridyl)-2-[(2,6-dichlorophenyl)-sulfanyl]acetamide]	9600 nM
Clc1ccc(CN2CCCC(Nc3ccc4[nH]ncc4c3)C2)cc1 (stereo not drawn) [Example 163, N-[1-(4-Chlorobenzyl)-3-piperidyl]-N-(1H-5-indazolyl)amine]	11 nM
O=C(/C=C/c1ccc(O)c(O)c1)Nc1ccc2[nH]ncc2c1 [Example 38, N1-(1H-5-Indazolyl)-(E)-3-(3,4-dihydroxyphenyl)-2-propeneamide]	107 nM
c1ccc(CNCCNc2ccc3[nH]ncc3c2)cc1 [Example 174, N1-Benzyl-N2-(1H-5-indazolyl)-1,2-ethanediamine]	163 nM
Clc1cccc(CN2CCC(Nc3ccc4[nH]ncc4c3)CC2)c1 [Example 135, N-[1-(3-Chlorobenzyl)-4-piperidyl]-N-(1H-5-indazolyl)amine]	285 nM
c1ccc(Oc2cccc(CN3CCC(Nc4ccc5[nH]ncc5c4)CC3)c2)cc1 [Example 123, N-(1H-5-Indazolyl)-N-[1-(3-phenoxybenzyl)-4-piperidyl]amine]	220 nM
O=C(NCC1CCCCC1)Nc1ccc2[nH]ncc2c1 [Example 105, N-Cyclohexylmethyl-N′-(1H-5-indazolyl)urea]	390 nM
CCc1ccccc1CN1CCC(Nc2ccc3[nH]ncc3c2)CC1 [Example 121, N-[1-(2-Ethylbenzyl)-4-piperidyl]-N-(1H-5-indazolyl)amine]	513 nM
O=C(NCc1c(F)ccc(F)c1F)Nc1ccc2c(c1)C(=O)NC2=O [Example 109, N-(1,3-Dioxo-2,3-dihydro-1H-5-isoindolyl)-N′-(2,3,6-trifluorobenzyl)urea]	161 nM
O=C(NCc1cccc2ccccc12)Nc1ccc2[nH]ncc2c1 [Example 107, N-(1H-5-Indazolyl)-N′-(1-naphthylmethyl)urea]	470 nM
O=C(NCc1c(Cl)cccc1Cl)Nc1ccc2c(c1)C(=O)NC2=O [Example 68, N1-(2,6-Dichlorobenzyl)-N′-(1,3-dioxo-2,3-dihydro-1H-5-isoindolyl)urea]	110 nM
CCc1ccc(CN2CCC(Nc3ccc4[nH]ncc4c3)CC2)cc1 [Example 120, N-[1-(4-Ethylbenzyl)-4-piperidyl]-N-(1H-5-indazolyl)amine]	241 nM
